{"source": "patent US9650427B2", "about": "“Modulators of antiviral signaling pathways and therapeutic uses thereof” (priority 2011, dated 2017)", "key": {"RLR/MAVS pathway": {"system": "RLR/MAVS pathway", "test": "PolyIC-induced IFN expression in polarized T84 cells, quantitative RT-PCR", "format": "cell-based, human", "conditions": "T84 cells pretreated 1 hour with peptide/inhibitor, then PolyIC for 5 hours; FIG. 2", "method": "FIG. 2 includes graphs showing the inhibitory effects of the novel RLR/MAVS signaling inhibitor. The results are from T84 cells that were treated for 1 hr with the inhibitors shown and then treated with PolyIC (PIC) for 5 hours. Cytokine expression was then assessed by qPCR. The y-axis indicates fold induction over untreated cells (UI).\nTo determine if the MAVS peptide can block RLR signaling in human cells, experiments were performed in the human intestinal epithelial cell (IEC) line T84 comparing the peptide to a previously characterized antennapedia-peptide that targets the TLR adaptor MyD88. These cells were chosen because it is well-known that many viruses penetrate the intestinal epithelium and it has been shown that they respond naturally to both TLR and RLR ligands (FIG. 2 and data not shown). Polarized T84 cells were pretreated for 1 hour with each peptide and then treated for 5 hours with synthetic viral RNA PolyIC, which activates signaling by […]. […] This inhibitory affect was specific, as the IFN expression was unaffected in cells treated with control peptides."}, "[1]": {"system": "antiviral responses in human cells", "test": "Blocking of antiviral responses in human cells", "format": "cell-based", "conditions": "at micromolar concentrations", "description": "Accordingly, described herein is a cell-permeable peptide inhibitor of antiviral pathways that operates in every human cell. It consists of the cell penetrating domain of the Drosophila antennapedia protein and amino acids 50-73 of the human MAVS protein. […]. This peptide represents the first described means of blocking antiviral responses in human cells before or at any time after infection by a virus. Moreover, this molecule can serve as a therapeutic to treat inflammatory autoimmune diseases (e.g., those that are caused by inappropriate activation of antiviral responses). No other method currently exists to accomplish these goals."}}, "data": [{"molecule": "CCN(CC)CCCC(C)Nc1ccnc2cc(Cl)ccc12", "note": "(stereo not drawn) [chloroquine, reference compound]", "values": [{"measurement": "expression of Type I IFN (IFNβ) and Type III IFN IL-29 in response to PolyIC", "setting": "RLR/MAVS pathway", "result": "neither chloroquine (which blocks TLRs that detect viral RNA) nor inhibitors of the dsRNA dependent kinase PKR, affected"}]}, {"molecule": "GNRDTLWHLFNTLQRRPGWVEYFI-RQIKIWFQNRRMKWKK (GNRDTLWHLFNTLQRRPGWVEYFIRQIKIWFQNRRMKWKK) [MAVS peptide, fusion peptide of amino acids 50-73 of MAVS and the cell penetrating domain of the antennapedia protein]", "values": [{"measurement": "expression of Type I IFN (IFNβ) and Type III IFN IL-29 in response to PolyIC", "setting": "RLR/MAVS pathway", "result": "completely abolished"}, {"measurement": "antiviral responses (expression of Type I and III interferons and interferon stimulated genes, including viperin)", "setting": "[1]", "result": "blocks antiviral responses in human cells at micromolar concentrations"}]}]}
